Experimental data reported in publication PMC6173696, “Structural properties of a haemophore facilitate targeted elimination of the pathogen Porphyromonas gingivalis” (Nature Communications, 2018).

Columns and labels:
[1] = tested on: H413 gingival epithelial cell; type: cell-based, Human
Protocol: Human gingival epithelial cells were grown to confluence and seeded on plastic chamber slides (75 × 25 mm^2) for incubation in 5% CO2 atmosphere overnight. Bacterial cells were co-incubated with epithelial cells at 37 °C for 2 h. After exposure to the antibiotics, epithelial cells were washed in PBS and incubated in culture media containing 5% FCS for 24 h. Subsequently, samples in the chamber slides were fixed with 4% fresh paraformaldehyde in PBS for 30 min at room temperature, washed in PBS, and permeabilised by ice-cold methanol for 5 min. Samples were then blocked overnight with 10% FCS supplemented with 0.05% (v/v) Triton X-100 in PBS buffer. Intracellular P. gingivalis was stained using the primary antibody IIB2[44] and fluorochrome-conjugated secondary antibody. […] Labelled epithelial cells with invaded bacteria were detected using an Olympus FV1000 confocal laser scanning microscope. In addition, the intrinsic fluorescence of P8 allowed temporal tracking of internalisation of P8 into epithelial cells in a separate experiment. Live cell images were recorded using a DeltaVision Elite Core Microscope.
Supplementary Figure 23. (A) UV-vis spectra of 10 µM P8 alone and in the presence of 10 µM HusA. (B) Stability assay of P8 in the presence of gingival epithelial cell lysate. The intensity of P8 fluorescence was applied to monitor the stability of P8 in the presence of cell lysate. […]

[2] = tested on: P. gingivalis wild-type W83; assay: Checkerboard / broth micro-dilution assay (MIC, MBC), wild-type W83; type: cell-based, Porphyromonas gingivalis
From the text: Fig. 5 A prototype DPIX-conjugated antibiotic binds HusA and inhibits P. gingivalis. a The chemical structure of the deuteroporphyrin-lysine-metronidazole adduct, P8. b NMR signal intensity changes (black) and ^1H^N CSPs (red/green) for HusA upon addition of P8 (measured from ^15N-HSQC spectra shown in Supplementary Figure 21). c In silico docking of P8 to the energy minimized structure of HusA (conformer set 1), with residues experiencing NMR signal loss (orange) or CSPs (red/green) mapped to the structure (colouring as described in Fig. 2d). d Scaled and corrected fluorescence at 335 nm during titration of 1 μM of HusA with increasing concentrations of P8, haemin or DPIX. e Comparison of P8 inhibitory effect towards P. gingivalis wild-type W83 and husA mutants using checkerboard analysis. Serial dilutions of antibiotics (horizontal axis) were applied to a 96-well plate with different P. gingivalis strains (vertical axis). Serial dilutions of DPIX were also supplemented into wild-type W83 group to evaluate the competitive effect against P8. Absorption at OD600 of each well was recorded after 24 h of incubation. The OD600 of each strain grown in the absence of antibiotics was defined as 100% growth, which was applied to normalise the reading collected from other wells. The normalised percentage of each well was plotted in the checkerboard. Metronidazole alone and in combination with PPIX or DPIX was applied as control. f Intracellular killing assay of P8 antibiotics. Gingival H413 epithelial cells were infected by P. gingivalis W83 and then treated with P8 at various concentrations. Recovered bacteria were determined by CFU count. Metronidazole and DMSO were used as control. Three independent experiments with triplicate assays were conducted. […]

[3] = tested on: H413 gingival epithelial cells; type: cell-based, Human; details: concentrations above 0.5 µM; 1 h or 2 h
Protocol: As P8 could penetrate epithelial cells, the cell membrane integrity was tested using lactate dehydrogenase (LDH) assay. LDH is readily released following cellular membrane damage. As per manufacturer’s instructions (Thermo Fisher Scientific, Australia), H413 cells were treated with P8 at various concentrations and incubated for 1 h and 2 h, respectively. The drug solubilisation medium DMSO and metronidazole were used as controls. The positive control provided by the manufacturer was used to determine the maximal LDH release and the ratio of corrected values obtained for the experimental groups relative to maximum LDH release represented cytotoxicity. The fluorescence intensity was recorded on SpetraMax® i3 (Molecular Devices, Australia).
Supplementary Figure 23. (A) UV-vis spectra of 10 µM P8 alone and in the presence of 10 µM HusA. (B) Stability assay of P8 in the presence of gingival epithelial cell lysate. The intensity of P8 fluorescence was applied to monitor the stability of P8 in the presence of cell lysate. (C) Confocal microscope analysis of the progressive uptake of P8 by H413 gingival epithelial cell over a 2 h period.
The fluorescent P8 is shown in red and the nuclei stained by DAPI are shown in blue. Scale bar, 25 µm. (D) Lactate dehydrogenase cytotoxicity assay of H413 gingival epithelial cells treated with P8 at various concentrations for 1 h or 2 h incubation. […]

## CC1=Cc2cc3[nH]c(cc4nc(cc5[nH]c(cc1n2)cc5C)C(C)=C4CCC(=O)N[C@@H](CCCCNC(=O)OC(C)(C)C)C(=O)NCCn1c([N+](=O)[O-])cnc1C)c(CCC(=O)O)c3C [P8]
[1]; 20 µM P8
  integrity of epithelial cells (confocal images): remain intact
[1]; over a 2-h period
  accumulation in epithelial cells: progressive accumulation
[2]; Porphyromonas gingivalis, no growth recovery on eTSB agar plate, read-out: minimal bactericidal concentration
  MBC: 10 to 20 µM
[2]; Porphyromonas gingivalis, planktonic W83, 24 h, anaerobic, read-out: minimal inhibitory concentration
  MIC: 1.25 to 2.5 µM
[2]; planktonic W83
  killing of extracellular P. gingivalis: more effective than metronidazole
[3]
  cell toxicity (LDH release): does not induce cell toxicity
